Measured values from patent publication US9382295B2, “Cyclic depsipeptide compounds and their uses” (Cypralis Limited, priority 2012, dated 2016).

What was measured:
cyclophilin D (Cyp D) = cyclophilin D (Cyp D) (Homo sapiens, UniProt P30405); assay: Protease-free PPIase assay, cyclophilin D; format: biochemical
Summary of the method: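 Cis-trans isomerization of a succinimide-peptide substrate (60 µM final) by 2 nM enzyme was followed at 330 nm in 35 mM HEPES pH 7.8 with 50 µM DTT, stirred at 10.0 °C, DMSO ≤0.5%. First-order rate constants minus background were fitted against inhibitor concentration to give Ki.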

cyclophilin A (Cyp A) = molecular target: T1, cyclophilin A (Cyp A) (Homo sapiens, UniProt P62937); assay: Protease-free PPIase assay, cyclophilin A; format: biochemical
T1 construct: purchased Sigma C3805
T1 sequence (P62937 whole entry): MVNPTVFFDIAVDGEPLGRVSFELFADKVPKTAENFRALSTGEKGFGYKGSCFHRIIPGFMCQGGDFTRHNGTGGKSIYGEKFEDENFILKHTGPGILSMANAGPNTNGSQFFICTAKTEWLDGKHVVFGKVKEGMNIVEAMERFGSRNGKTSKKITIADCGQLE
Summary of the method: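 Protease-free cis-trans isomerisation: 2 nM recombinant human cyclophilin A with 60 μM succinimide-peptide substrate in 35 mM HEPES pH 7.8 plus DTT, at 10.0 °C, max 0.5% DMSO. Absorbance at 330 nm was fitted to first-order kinetics, background subtracted, and catalytic rates versus inhibitor concentration gave Ki.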

Chain of cyclophilin D (Cyp D) (P30405 30-207): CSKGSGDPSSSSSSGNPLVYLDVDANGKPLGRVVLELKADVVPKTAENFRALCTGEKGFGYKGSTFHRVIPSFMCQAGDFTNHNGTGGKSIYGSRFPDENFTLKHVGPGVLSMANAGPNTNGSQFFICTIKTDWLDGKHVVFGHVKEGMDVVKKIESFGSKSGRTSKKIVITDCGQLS

Ki (cyclophilin D (Cyp D)): 6.5 nM
Ki (cyclophilin A (Cyp A)): 9.2 nM
SMILES: CC(C)CC1NC(=O)[C@H](CC(C)C)N(C)C(=O)CN(C)C(=O)C([C@@H](C)O)NC(=O)C([C@H](O)[C@H](C)CCN2CCOCC2)N(C)C(=O)C(C(C)C)N(C)C(=O)C(CC(C)C)NC(=O)C(CC(C)C)N(C)C(=O)C(C(C)C)OC(=O)C(C)NC(=O)C(CC(C)C)N(C)C1=O (stereo in doubt) [Example 2, cyclo-[(3R,4R,5S)-4-(hydroxy)-3-methyl-5-(methylamino)-1-N-morpholino-hexanoic acid-Thr-Sar-MeLeu-Leu-MeLeu-Ala-D-Hiv-MeLeu-Leu-MeVal]]
